# Measurements reported in PMC10916402, “Meropenem-ANT3310, a unique β-lactam-β-lactamase inhibitor combination with expanded antibacterial spectrum against Gram-negative pathogens including carbapenem-resistant Acinetobacter baumannii” (Antimicrobial Agents and Chemotherapy, 2024).
# Like-named read-outs stand apart in the source and are kept apart here.
# Columns and labels:
# [1] = parameters: method as in PMID 32297801; details: 2 g MEM q8h as a 3-h IV infusion, MEM-vaborbactam clinical trials; cited from earlier work
# [2] = tested on: KPC-producing Enterobacterales (KPC-CRE); test: organism not typed; format: cell-based
# In short: (§1)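 Broth microdilution per CLSI and EUCAST in cation-adjusted Mueller Hinton broth, iron-depleted for cefiderocol; ANT3310 panels prepared fresh on test day. Isolates collected 2018–2019, identity confirmed by MALDI-TOF. MIC taken as first well without visible growth, interpreted with 2023 CLSI and EUCAST breakpoints.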
# [3] = tested on: OXA-producing Enterobacterales (OXA-CRE); test: organism not typed; format: cell-based
# In short: as §1
# [4] = parameters: method as in PMID 14517194, PMID 20851549; details: 2 g MEM q8h as a 3-h IV infusion; cited from earlier work
# [5] = tested on: P. aeruginosa clinical isolates; test: Broth microdilution MIC, P. aeruginosa clinical isolates; format: cell-based, Pseudomonas aeruginosa; details: 502 P. aeruginosa, 2019 global collection
# Experimental: All isolates were randomly selected from the frozen culture collection of IHMA collected in 2018 and 2019. Matrix-assisted laser desorption ionization-time of flight mass spectrometry was used to confirm the identity of the organisms tested (Bruker Daltonics, Bremen, Germany).
# (§2) MICs for all antimicrobial agents were determined at IHMA by broth microdilution in accordance with both CLSI ([17]) and EUCAST ([18]) guidelines. Microtiter panels were prepared by IHMA and stored at −70°C in cation-adjusted Mueller Hinton broth (CAMHB) (Becton Dickinson). Iron-depleted CAMHB was used to test cefiderocol. Panels containing ANT3310 were prepared fresh on the day of testing. […] MIC values corresponded to the first well with no visible growth. Quality control testing was performed on each day of testing with E. coli ATCC 25922, P. aeruginosa ATCC 27853, K. pneumoniae ATCC 700603 and BAA 1705, and A. baumannii NCTC 13304. MICs were interpreted using 2023 CLSI ([17]) and EUCAST ([18]) BPs.
# [6] = tested on: A. baumannii ACC00445 (OXA-23); test: Murine lung infection model; format: in vivo, neutropenic male CD-1 mice; details: 14-h model, MEM IV 30 mg/kg
# [7] = tested on: A. baumannii ACC00445 (OXA-23); test: MIC against the isolate used in the infection models; format: cell-based; details: Acinetobacter baumannii
# Experimental: as §2
# [8] = tested on: carbapenem-resistant Acinetobacter baumannii (CRAB) clinical isolates; test: Broth microdilution MIC, CRAB isolates; format: cell-based; details: for CLSI % Res / CLSI % Sus / EUCAST % Res / EUCAST % Sus: CRAB; for CLSI % Res / CLSI % Sus: CLSI BP; for CLSI % Res: for MEM-ANT3310 % at ≥16 µg/mL; for CLSI % Sus: for MEM-ANT3310 % inhibited at ≤8 µg/mL; for EUCAST % Res / EUCAST % Sus: EUCAST BP; for MIC90: read-out: MIC90
# In short: as §1
# [9] = tested on: A. baumannii clinical isolates; test: Broth microdilution MIC, A. baumannii clinical isolates; format: cell-based, Acinetobacter baumannii; details: for CLSI % Res / CLSI % Sus: CLSI BP; for CLSI % Res: for MEM-ANT3310 % at ≥16 µg/mL; for CLSI % Sus: for MEM-ANT3310 % inhibited at ≤8 µg/mL; for EUCAST % Res / EUCAST % Sus: EUCAST BP
# In short: as §1
# [10] = tested on: A. baumannii ACC00445 (OXA-23); test: Murine thigh infection model; format: in vivo, neutropenic male CD-1 mice; details: 9-h model, MEM 300 mg/kg IV every 2 h alone
# [11] = 180 KPC-producing Enterobacterales, EUCAST BP
# [12] = 252 OXA-producing Enterobacterales, EUCAST BP
# [13] = 2018 Global collection, CRAB (MEM MICs >4 µg/mL), N 363
# [14] = 2019 Global collection, CRAB (MEM MICs >4 µg/mL), N 340
# [15] = 2018 Global collection, All A. baumannii, N 500
# [16] = 2019 Global collection, All A. baumannii, N 405
compound,measurement,setting,value
"C[C@@H](O)[C@H]1C(=O)N2C(C(=O)O)=C(S[C@@H]3CN[C@H](C(=O)N(C)C)C3)[C@H](C)[C@H]12 [MEM, meropenem]",safety and tolerability,[1],generally safe and well tolerated
same,MIC50,[2],> 32 µg/mL
same,MIC90,[2],> 32 µg/mL
same,MIC90,"[2]; 180 KPC-producing Enterobacterales, 2018 global collection",>32 µg/mL
same,CLSI % Res,"[2]; 180 KPC-producing Enterobacterales, CLSI BP, for MEM-ANT3310 % at ≥16 µg/mL",98.9%
same,CLSI % Sus,"[2]; 180 KPC-producing Enterobacterales, CLSI BP, for MEM-ANT3310 % inhibited at ≤8 µg/mL",0%
same,EUCAST % Res,[2]; [11],88.3%
same,EUCAST % Sus,[2]; [11],1.1%
same,MIC50,[3],16 µg/mL
same,MIC90,[3],> 32 µg/mL
same,MIC90,"[3]; 252 OXA-producing Enterobacterales, 2018 global collection",>32 µg/mL
same,CLSI % Res,"[3]; 252 OXA-producing Enterobacterales, CLSI BP, for MEM-ANT3310 % at ≥16 µg/mL",89.7%
same,CLSI % Sus,"[3]; 252 OXA-producing Enterobacterales, CLSI BP, for MEM-ANT3310 % inhibited at ≤8 µg/mL",0%
same,EUCAST % Res,[3]; [12],74.6%
same,EUCAST % Sus,[3]; [12],10.5%
same,probability of target attainment for MEM MICs ≤8 µg/mL,[4],> 90%
same,Number of isolates inhibited at MIC of 0.25 µg/mL,[5],97
same,Number of isolates inhibited at MIC of 0.5 µg/mL,[5],109
same,Number of isolates inhibited at MIC of 1 µg/mL,[5],87
same,Number of isolates inhibited at MIC of 2 µg/mL,[5],27
same,Number of isolates inhibited at MIC of 4 µg/mL,[5],25
same,Number of isolates inhibited at MIC of 8 µg/mL,[5],27
same,Number of isolates inhibited at MIC of 16 µg/mL,[5],15
same,Number of isolates inhibited at MIC of 32 µg/mL,[5],9
same,Number of isolates inhibited at MIC of >32 µg/mL,[5],26
same,Number of isolates inhibited at MIC of ≤0.125 µg/mL,[5],80
same,MIC50,"[5]; Pseudomonas aeruginosa, read-out: MIC50",0.5 µg/mL
same,MIC90,"[5]; Pseudomonas aeruginosa, read-out: MIC90",8 µg/mL
same,efficacy of MEM alone,[6],No efficacy
same,MIC,[7],64 µg/mL
same,MIC50,[8]; [13],>32 µg/mL
same,Number of isolates inhibited at MIC of 8 µg/mL,[8]; [13],5
same,Number of isolates inhibited at MIC of 16 µg/mL,[8]; [13],16
same,Number of isolates inhibited at MIC of 32 µg/mL,[8]; [13],64
same,Number of isolates inhibited at MIC of >32 µg/mL,[8]; [13],278
same,CLSI % Res,"[8]; 2018 Global collection, N 363",100%
same,CLSI % Sus,"[8]; 2018 Global collection, N 363",0%
same,EUCAST % Res,"[8]; 2018 Global collection, N 363",98.6%
same,EUCAST % Sus,"[8]; 2018 Global collection, N 363",0%
same,MIC50,[8]; [14],>32 µg/mL
same,Number of isolates inhibited at MIC of 8 µg/mL,[8]; [14],9
same,Number of isolates inhibited at MIC of 16 µg/mL,[8]; [14],12
same,Number of isolates inhibited at MIC of 32 µg/mL,[8]; [14],66
same,Number of isolates inhibited at MIC of >32 µg/mL,[8]; [14],253
same,CLSI % Res,"[8]; 2019 Global collection, N 340",100%
same,CLSI % Sus,"[8]; 2019 Global collection, N 340",0%
same,EUCAST % Res,"[8]; 2019 Global collection, N 340",97.3%
same,EUCAST % Sus,"[8]; 2019 Global collection, N 340",0%
same,MIC90,"[8]; Acinetobacter baumannii, 2018 Global collection, CRAB (MEM MICs >4 µg/mL), N 363",> 32 µg/mL
same,MIC90,"[8]; Acinetobacter baumannii, 2019 Global collection, CRAB (MEM MICs >4 µg/mL), N 340",> 32 µg/mL
same,MIC50,"[8]; Acinetobacter baumannii, CRAB isolates 2018–2019 (n = 703), ANT3310 at 8 µg/mL, read-out: MIC50",> 32 µg/mL
same,MIC90,"[8]; Acinetobacter baumannii, CRAB isolates 2018–2019 (n = 703), ANT3310 at 8 µg/mL",> 32 µg/mL
same,"% of isolates resistant to MEM (CLSI, MIC ≥8 µg/mL)","[9]; 905 A. baumannii isolates, overall",78%
same,MIC50,[9]; [15],>32 µg/mL
same,MIC90,[9]; [15],>32 µg/mL
same,Number of isolates inhibited at MIC of 0.25 µg/mL,[9]; [15],52
same,Number of isolates inhibited at MIC of 0.5 µg/mL,[9]; [15],42
same,Number of isolates inhibited at MIC of 1 µg/mL,[9]; [15],21
same,Number of isolates inhibited at MIC of 2 µg/mL,[9]; [15],9
same,Number of isolates inhibited at MIC of 4 µg/mL,[9]; [15],6
same,Number of isolates inhibited at MIC of 8 µg/mL,[9]; [15],5
same,Number of isolates inhibited at MIC of 16 µg/mL,[9]; [15],16
same,Number of isolates inhibited at MIC of 32 µg/mL,[9]; [15],64
same,Number of isolates inhibited at MIC of >32 µg/mL,[9]; [15],278
same,Number of isolates inhibited at MIC of ≤0.125 µg/mL,[9]; [15],7
same,CLSI % Res,[9]; [15],72.6%
same,CLSI % Sus,[9]; [15],26.2%
same,EUCAST % Res,[9]; [15],71.6%
same,EUCAST % Sus,[9]; [15],26.2%
same,MIC50,[9]; [16],>32 µg/mL
same,Number of isolates inhibited at MIC of 0.25 µg/mL,[9]; [16],31
same,Number of isolates inhibited at MIC of 0.5 µg/mL,[9]; [16],18
same,Number of isolates inhibited at MIC of 1 µg/mL,[9]; [16],1
same,Number of isolates inhibited at MIC of 2 µg/mL,[9]; [16],5
same,Number of isolates inhibited at MIC of 4 µg/mL,[9]; [16],3
same,Number of isolates inhibited at MIC of 8 µg/mL,[9]; [16],9
same,Number of isolates inhibited at MIC of 16 µg/mL,[9]; [16],12
same,Number of isolates inhibited at MIC of 32 µg/mL,[9]; [16],66
same,Number of isolates inhibited at MIC of >32 µg/mL,[9]; [16],253
same,Number of isolates inhibited at MIC of ≤0.125 µg/mL,[9]; [16],7
same,CLSI % Res,[9]; [16],83.9%
same,CLSI % Sus,[9]; [16],15.3%
same,EUCAST % Res,[9]; [16],81.7%
same,EUCAST % Sus,[9]; [16],15.3%
same,MEM-resistance rate,[9]; A. baumannii isolates from Asia/Pacific,74%
same,MEM-resistance rate,[9]; A. baumannii isolates from Middle East,91%
same,MEM-resistance rate,[9]; A. baumannii isolates from North America,40%
same,MIC90,"[9]; Acinetobacter baumannii, 2018 Global collection, All A. baumannii, N 500, read-out: MIC90",> 32 µg/mL
same,MIC90,"[9]; Acinetobacter baumannii, 2019 Global collection, All A. baumannii, N 405, read-out: MIC90",> 32 µg/mL
same,MIC90,"[9]; Acinetobacter baumannii, A. baumannii, one or both of the 2018/2019 collections, read-out: MIC90",≥ 32 µg/mL
same,MIC50,"[9]; Acinetobacter baumannii, combined A. baumannii 2018–2019 collection (n = 905), ANT3310 at 8 µg/mL, read-out: MIC50",> 32 µg/mL
same,MIC90,"[9]; Acinetobacter baumannii, combined A. baumannii 2018–2019 collection (n = 905), ANT3310 at 8 µg/mL, read-out: MIC90",> 32 µg/mL
same,bacterial counts compared to the vehicle-treated group,[10],No reductions in bacterial counts
